Holding throughout (type): biochemical
Experiment [1] addresses T1, HER2 (Homo sapiens, UniProt P04626).
T1 construct: purchased ProQinase GmbH
Briefly: HER2 protein kinase assay (33PanQinase), single concentration. As to conditions: 0.5 μM (5 × 10^−7 M), singlicate, % of control activity; read-out: Residual activity under 0.5 μM drug concentration (%) HER2. The method, then: (§1) The inhibitory profile of 16 compounds was determined using two protein kinases. The compounds were tested at a concentration of 5 × 1 0^−7 M, in singlicate. The compounds were solved and diluted to 5 × 10^−5 M stock solutions in 100% DMSO according to the customer-filled CSF. 10 μL of each of the stock solutions were transferred into […] of a 96-well, Column 1 and 2 of the plate were filled with 10 μL100% DMSO. The plate is in the following referred to as “copy plate”. In the process, 90 μL H2O were added to each well of the copy plate. To minimize potential compound precipitation, the H2O was added to each well only a few minutes before the transfer of the compound solutions into the assay plates. The plate was shaken thoroughly, resulting in a “compound dilution plate” with a compound concentration of 5 × 10^−6 M/10% DMSO. This plate was used for the transfer of 5 μL compound solution into the assay plates. The final volume of the assay was 50 μL. All compounds were tested at 5 × 1 0^−7 M in singlicate. The final DMSO concentration in the reaction cocktails was 1% in all cases. The compound dilution plate was disposed.
(§2) A radiometric protein kinase assay (33PanQinase® Activity Assay) was used for measuring the kinase activity of the two protein kinases. All kinase assays were performed in 96-well FlashPlatesTM from PerkinElmer (Boston, MA, USA) in a 50 μL reaction volume. The reaction cocktail was pipetted in 4 steps in the following order: 20 μL of assay buffer, 5 μL of ATP solution (in H2O), 5 μL of test compound (in 10% DMSO), 20 μL enzyme/subtrate mix. The assay for both protein kinases contained 70 mM HEPES-NaOH pH 7.5, 3 mM MgCl2, 3 mM MnCl2, 3 μM Na-orthovanadate, 1.2 mM DTT, ATP. The assay for ERBB2 additionally contained 50 μg/mLPEG20000. The reaction cocktails were incubated at 30 °C for 60 min. The reaction was stopped with 50 μL of 2% (v/v) H3PO4, plates were aspirated and washed two times with 200 μL 0.9% (w/v) NaCl. Incorporation of 33Pi was determined with a microplate scintillation counter (Microbeta, Wallac). All assays were performed with a BeckmanCoulter/SAGIAN™Core System. The median value of the counts in column 1 (n = 8) of each assay plate was defined as “low control”. This value reflects unspecific binding of radioactivity to the plate in the absence of a protein kinase but in the presence of the substrate. The median value of the counts in column 2 of each assay plate (n = 8) was taken as the “high control”. As part of the data evaluation the low control value from a particular plate was subtracted from the high control value as well as from all 80 “compound values” of the corresponding plate. The residual activity (in %) for each well of a particular plate was calculated by using the following formula: Res. Activity (%) = 100 × [(cpm of compound – low control)/(high control − low control)]

Experiment [2] has as its target T2, EGF-R wt (Homo sapiens, UniProt P00533).
T2 construct: purchased ProQinase GmbH
Briefly: EGFR-wt protein kinase assay (33PanQinase), single concentration. Particulars: 0.5 μM (5 × 10^−7 M), singlicate, % of control activity; read-out: Residual activity under 0.5 μM drug concentration (%) EGF-R wt. The method, then:
as §1, §2

The target of experiment [3] is EGF-R d747-749/A750P (Homo sapiens, UniProt P00533, A750P/DEL747-749). Briefly: Radiometric protein kinase IC50 assay (33PanQinase). The method, then:
(§3) The compounds were serially diluted in semi-log steps with 100% DMSO in a 96 well microtiter plate. The concentration range of this serial dilution was 1 × 10^−3 M to 3 × 10^−8 M. Directly before use the test compounds were further diluted 1:10 with water, resulting in a concentration range from 1 × 10^−4 M to 3 × 1 0^−9 M in 10% DMSO. For the assays, 5 μL from each concentration were transferred into the assay. The final volume of the assay was 50 μL. The compounds were tested at 10 final assay concentrations in the range from 1 × 10^−5 M to 3 × 10^−10 M. The final DMSO concentration in the reaction cocktails was 1% in all cases.
(§4) A radiometric protein kinase assay (33PanQinase® Activity Assay) was used for measuring the kinase activity of the 9 protein kinases. All kinase assays were performed in 96-well FlashPlatesTM from Perkin Elmer (Boston, MA, USA) in a 50 μL reaction volume. The reaction cocktail was pipetted in 4 steps in the following order: 10 μL of non-radioactive ATP solution (in H2O), 25 μL of assay buffer/[γ-33P]-ATP mixture, 5 μL of test sample in 10% DMSO, 10 μL of enzyme/substrate mixture. The assay for all protein kinases contained 70 mM HEPES-NaOH pH 7.5, 3 mM MgCl2, 3 mM MnCl2, 3 μM Na-orthovanadate, 1.2 mM DTT, ATP, [γ-33P]-ATP, protein kinase, and substrate.The reaction cocktails were incubated at 30 °C for 60 min. The reaction was stopped with 50 μL of 2% (v/v) H3PO4, plates were aspirated and washed two times with 200 μL 0.9% (w/v) NaCl. Incorporation of 33Pi (counting of “cpm”) was determined with a microplate scintillation counter (Microbeta, Wallac). All assays were performed with a BeckmanCoulter Biomek 2000/SL robotic system.
(§5) For each kinase, the median value of the cpm of three wells with complete reaction cocktails, but without kinase, was defined as “low control” (n = 3). This value reflects unspecific binding of radioactivity to the plate in the absence of protein kinase but in the presence of the substrate. Additionally, for each kinase the median value of the cpm of three other wells with the complete reaction cocktail, but without any compound, was taken as the “high control”, i.e. full activity in the absence of any inhibitor (n = 3). The difference between high and low control was taken as 100% activity for each kinase. As part of the data evaluation the low control value of each kinase was subtracted from the high control value as well as from their corresponding “compound values”. The residual activity (in %) for each compound well was calculated by using the following formula: Res. Activity (%) = 100 × [(cpm of compound – low control)/(high control – low control)]
(§6) Based on each 10 corresponding residual activities, IC50 values were calculated using Prism 5.04 for Windows. The mathematical model used was “Sigmoidal response (variable slope)” with parameters “top” fixed at 100% and “bottom” at 0%. The fitting method used was a least-squares fit.

Experiment [4] addresses T1, HER2. The description is as above. The method, then: as §3, §4, §5, §6
In experiment [5] the target is T2, EGF-R wt. The experiment is described as above. As to conditions: for biochemical activity on EGFR wt compared with neratinib: not more than that of neratinib. The method, then: as §3, §4, §5, §6
Experiment [6] has as its target EGF-R d752-759 (Homo sapiens, UniProt P00533, DEL752-759). The experiment is described as above. The method, then: as §3, §4, §5, §6
Experiment [7] addresses EGF-R T790M/L858R (Homo sapiens, UniProt P00533, L858R/T790M). The description is as above. Particulars: for inhibitory activity on EGFR mutant containing both T790M and L858R, times stronger than neratinib: ratio of IC50 values to neratinib. The method, then:
as §3, §4, §5, §6

Experiment [8] addresses EGF-R L858R (Homo sapiens, UniProt P00533, L858R). The description is as above. The method, then: as §3, §4, §5, §6
The target of experiment [9] is EGF-R T790M (Homo sapiens, UniProt P00533, T790M). Described as above. The method, then: as §3, §4, §5, §6
For experiment [10], the target named is EGF-R G719S (Homo sapiens, UniProt P00533, G719S). The experiment is described as above. The method, then:
as §3, §4, §5, §6

For experiment [11], the target named is EGF-R L861Q (Homo sapiens, UniProt P00533, L861Q). Described as above. The method, then: as §3, §4, §5, §6

Molecules are shown by their SMILES.

T2 sequence (P00533 25-1210): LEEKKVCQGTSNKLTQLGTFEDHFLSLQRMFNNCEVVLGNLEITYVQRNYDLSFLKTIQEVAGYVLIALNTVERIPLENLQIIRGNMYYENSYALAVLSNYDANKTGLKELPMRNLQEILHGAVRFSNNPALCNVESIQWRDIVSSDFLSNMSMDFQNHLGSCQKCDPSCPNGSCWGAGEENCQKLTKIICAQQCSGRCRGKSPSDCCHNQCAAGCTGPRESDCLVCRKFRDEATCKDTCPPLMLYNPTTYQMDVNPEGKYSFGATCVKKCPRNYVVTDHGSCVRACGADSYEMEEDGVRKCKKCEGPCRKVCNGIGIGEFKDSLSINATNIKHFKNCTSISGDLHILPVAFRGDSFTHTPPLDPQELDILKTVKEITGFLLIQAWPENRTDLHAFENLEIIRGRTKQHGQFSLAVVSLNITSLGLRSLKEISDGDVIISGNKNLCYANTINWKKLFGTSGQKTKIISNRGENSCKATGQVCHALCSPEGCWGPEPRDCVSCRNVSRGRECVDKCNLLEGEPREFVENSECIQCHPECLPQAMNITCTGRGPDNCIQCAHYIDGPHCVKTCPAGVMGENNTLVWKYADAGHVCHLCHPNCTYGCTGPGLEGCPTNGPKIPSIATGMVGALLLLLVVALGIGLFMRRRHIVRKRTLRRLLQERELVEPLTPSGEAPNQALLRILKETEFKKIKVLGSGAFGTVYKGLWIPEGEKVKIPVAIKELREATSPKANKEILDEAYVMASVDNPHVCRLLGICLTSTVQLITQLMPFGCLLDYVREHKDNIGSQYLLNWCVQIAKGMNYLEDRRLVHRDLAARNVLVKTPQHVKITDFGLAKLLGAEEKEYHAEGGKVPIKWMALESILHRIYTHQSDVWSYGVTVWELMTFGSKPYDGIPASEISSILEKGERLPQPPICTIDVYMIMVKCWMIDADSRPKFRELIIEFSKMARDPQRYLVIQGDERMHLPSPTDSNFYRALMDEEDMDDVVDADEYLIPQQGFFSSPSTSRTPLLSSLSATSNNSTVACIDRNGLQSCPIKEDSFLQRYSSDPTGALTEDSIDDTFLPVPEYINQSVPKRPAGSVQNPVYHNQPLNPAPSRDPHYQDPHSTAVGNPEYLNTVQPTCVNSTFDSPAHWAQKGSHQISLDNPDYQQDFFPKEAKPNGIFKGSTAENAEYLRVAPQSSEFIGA
Sequence of EGF-R T790M/L858R (P00533 25-1210 T790M/L858R): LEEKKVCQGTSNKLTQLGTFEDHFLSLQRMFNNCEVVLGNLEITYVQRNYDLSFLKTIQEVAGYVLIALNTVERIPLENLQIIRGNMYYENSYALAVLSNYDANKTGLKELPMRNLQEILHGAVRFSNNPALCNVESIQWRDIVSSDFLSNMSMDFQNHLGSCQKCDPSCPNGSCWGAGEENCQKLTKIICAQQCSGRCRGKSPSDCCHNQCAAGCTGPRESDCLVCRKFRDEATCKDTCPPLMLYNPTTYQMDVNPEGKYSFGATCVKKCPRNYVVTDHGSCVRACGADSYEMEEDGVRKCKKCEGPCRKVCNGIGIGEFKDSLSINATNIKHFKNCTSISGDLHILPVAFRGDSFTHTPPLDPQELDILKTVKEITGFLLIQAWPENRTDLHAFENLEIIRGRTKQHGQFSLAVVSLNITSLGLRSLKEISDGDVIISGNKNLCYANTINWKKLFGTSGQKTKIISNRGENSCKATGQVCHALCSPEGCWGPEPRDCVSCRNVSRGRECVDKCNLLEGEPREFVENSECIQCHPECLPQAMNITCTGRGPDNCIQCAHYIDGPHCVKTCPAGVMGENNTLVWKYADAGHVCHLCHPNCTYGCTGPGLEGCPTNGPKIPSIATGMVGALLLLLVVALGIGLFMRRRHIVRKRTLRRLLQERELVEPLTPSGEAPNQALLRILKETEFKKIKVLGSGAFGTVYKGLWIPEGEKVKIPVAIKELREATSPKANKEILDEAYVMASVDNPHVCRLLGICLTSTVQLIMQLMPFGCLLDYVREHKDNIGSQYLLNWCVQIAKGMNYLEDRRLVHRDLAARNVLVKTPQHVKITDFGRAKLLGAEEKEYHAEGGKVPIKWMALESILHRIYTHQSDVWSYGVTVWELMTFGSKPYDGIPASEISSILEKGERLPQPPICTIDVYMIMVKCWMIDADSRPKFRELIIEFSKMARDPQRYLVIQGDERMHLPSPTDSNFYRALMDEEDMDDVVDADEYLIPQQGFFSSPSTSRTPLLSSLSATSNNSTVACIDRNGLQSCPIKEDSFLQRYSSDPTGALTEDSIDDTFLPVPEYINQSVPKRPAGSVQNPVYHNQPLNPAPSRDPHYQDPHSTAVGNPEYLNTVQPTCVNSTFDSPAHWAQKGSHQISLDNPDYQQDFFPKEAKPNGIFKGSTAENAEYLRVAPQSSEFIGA
T1 sequence (P04626 23-1255): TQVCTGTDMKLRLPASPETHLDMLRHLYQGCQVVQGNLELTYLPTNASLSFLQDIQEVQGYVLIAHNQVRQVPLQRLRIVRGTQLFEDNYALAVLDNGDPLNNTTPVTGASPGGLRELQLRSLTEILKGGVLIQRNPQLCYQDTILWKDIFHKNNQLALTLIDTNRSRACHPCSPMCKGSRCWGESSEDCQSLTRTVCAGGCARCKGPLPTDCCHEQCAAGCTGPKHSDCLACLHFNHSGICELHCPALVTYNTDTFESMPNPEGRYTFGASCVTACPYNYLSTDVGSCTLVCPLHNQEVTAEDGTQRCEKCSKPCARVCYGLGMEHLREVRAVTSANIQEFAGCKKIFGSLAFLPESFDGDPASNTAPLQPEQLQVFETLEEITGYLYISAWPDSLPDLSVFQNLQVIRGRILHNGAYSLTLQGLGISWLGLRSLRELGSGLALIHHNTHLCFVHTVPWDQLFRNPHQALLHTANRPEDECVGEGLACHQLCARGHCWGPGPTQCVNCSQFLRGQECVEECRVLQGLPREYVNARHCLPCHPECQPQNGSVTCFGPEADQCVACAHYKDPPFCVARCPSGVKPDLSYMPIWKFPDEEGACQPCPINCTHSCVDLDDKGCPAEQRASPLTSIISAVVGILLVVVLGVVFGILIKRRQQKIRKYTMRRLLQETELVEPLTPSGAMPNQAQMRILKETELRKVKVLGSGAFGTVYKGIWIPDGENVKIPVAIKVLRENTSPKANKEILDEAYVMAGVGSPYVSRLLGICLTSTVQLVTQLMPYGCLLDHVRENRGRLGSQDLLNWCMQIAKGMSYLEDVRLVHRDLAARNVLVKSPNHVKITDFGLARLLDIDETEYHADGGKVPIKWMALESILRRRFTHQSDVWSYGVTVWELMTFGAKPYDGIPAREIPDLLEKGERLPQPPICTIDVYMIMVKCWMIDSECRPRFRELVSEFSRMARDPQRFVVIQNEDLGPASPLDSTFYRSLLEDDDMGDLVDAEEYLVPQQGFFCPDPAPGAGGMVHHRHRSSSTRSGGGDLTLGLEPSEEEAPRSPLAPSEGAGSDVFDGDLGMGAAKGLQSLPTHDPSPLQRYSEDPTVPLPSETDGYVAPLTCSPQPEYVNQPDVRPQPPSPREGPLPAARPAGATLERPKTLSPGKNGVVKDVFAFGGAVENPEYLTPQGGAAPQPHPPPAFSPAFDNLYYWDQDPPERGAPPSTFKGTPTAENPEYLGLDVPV
Sequence of EGF-R L861Q (P00533 25-1210 L861Q): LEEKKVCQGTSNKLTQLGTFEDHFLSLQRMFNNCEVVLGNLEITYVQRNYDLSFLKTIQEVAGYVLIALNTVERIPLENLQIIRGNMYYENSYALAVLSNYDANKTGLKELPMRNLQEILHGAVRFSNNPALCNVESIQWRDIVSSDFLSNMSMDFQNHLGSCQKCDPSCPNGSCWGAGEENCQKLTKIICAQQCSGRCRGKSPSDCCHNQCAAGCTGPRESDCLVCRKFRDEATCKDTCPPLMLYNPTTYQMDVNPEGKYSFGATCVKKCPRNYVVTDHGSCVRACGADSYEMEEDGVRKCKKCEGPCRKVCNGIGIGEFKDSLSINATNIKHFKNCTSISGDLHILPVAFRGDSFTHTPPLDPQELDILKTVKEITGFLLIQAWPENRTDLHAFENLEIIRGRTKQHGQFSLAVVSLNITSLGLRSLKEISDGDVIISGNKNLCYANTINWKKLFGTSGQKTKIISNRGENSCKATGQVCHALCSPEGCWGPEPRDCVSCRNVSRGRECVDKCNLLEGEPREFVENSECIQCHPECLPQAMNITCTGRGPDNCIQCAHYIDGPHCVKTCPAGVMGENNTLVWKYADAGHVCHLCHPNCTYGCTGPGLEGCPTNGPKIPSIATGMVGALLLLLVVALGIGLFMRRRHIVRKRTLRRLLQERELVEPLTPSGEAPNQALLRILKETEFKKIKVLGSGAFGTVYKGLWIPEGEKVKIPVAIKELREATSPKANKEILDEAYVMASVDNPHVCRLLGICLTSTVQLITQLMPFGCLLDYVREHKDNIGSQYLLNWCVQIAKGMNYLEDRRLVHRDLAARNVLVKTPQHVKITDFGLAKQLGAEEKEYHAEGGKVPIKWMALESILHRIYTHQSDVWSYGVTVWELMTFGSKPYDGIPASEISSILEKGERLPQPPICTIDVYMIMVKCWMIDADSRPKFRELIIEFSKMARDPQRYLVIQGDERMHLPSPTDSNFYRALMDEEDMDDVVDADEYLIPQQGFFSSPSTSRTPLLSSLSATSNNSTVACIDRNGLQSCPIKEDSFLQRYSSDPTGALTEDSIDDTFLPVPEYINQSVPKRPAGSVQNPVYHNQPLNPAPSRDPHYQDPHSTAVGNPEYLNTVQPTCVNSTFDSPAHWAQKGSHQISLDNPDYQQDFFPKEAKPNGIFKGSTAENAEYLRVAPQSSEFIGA

Consider `C=CC(=O)N1CC2(CCN(C)CC2)c2cc(OC)c(Nc3ncc(C#N)c(Nc4ccc(OCc5ccccn5)cc4)n3)cc21` [Compound A1, 2-{[5-methoxy-1′-methyl-1-(prop-2-enoyl)-1,2-dihydrospiro[indole-3,4′ -piperidine]-6-yl]amino}-4-{[4-(pyridin-2-ylmethoxy)phenyl]amino}pyrimidine-5-carbonitrile], for which the remaining activity at 0.5 µM came out at 9% in [1] and 7% in experiment [2]. The IC50 (in general, the point on the concentration scale where inhibition reaches its midpoint) in experiment [3] was 53 nM; in [4], 260 nM; in experiment [5], 61 nM; in [6], 210 nM; in experiment [7], 90 nM; in [8], 86 nM. Further, the IC50 amounted to 89 nM in [9], 200 nM in experiment [10] and 76 nM in experiment [11]. In addition, the “biochemical activity on EGFR wt compared with neratinib” value in experiment [5] was “within five times”. The “inhibitory activity on EGFR mutant containing both T790M and L858R, times stronger than neratinib” value in experiment [7] worked out at 31 times.
For the molecule `C=CC(=O)N1CC2(CCN(C)CC2)c2cc(OC)c(Nc3ncc(C#N)c(Nc4ccc(OCc5ccccn5)c(Cl)c4)n3)cc21` [Compound A2, 4-{[3-chloro-4-(pyridin-2-ylmethoxy)phenyl]amino}-2-{[5-methoxy-1′-methyl-1-(prop-2-enoyl)-1,2-dihydrospiro[indole-3,4′-piperidine]-6-yl]amino}pyrimidine-5-carbonitrile], the remaining activity at 0.5 µM in experiment [1] turned out to be 5%; in experiment [2], 6%. Besides, the IC50 in experiment [3] was 54 nM; in experiment [4], 310 nM; in experiment [5], 59 nM; in experiment [6], 200 nM; in experiment [7], 80 nM; in experiment [8], 81 nM. The figures for the IC50 in experiment [9], in experiment [10] and in experiment [11] were 130 nM, 240 nM and 81 nM, respectively. For the same molecule, the “biochemical activity on EGFR wt compared with neratinib” value in experiment [5] is on record as “within five times”. For the same molecule, the “inhibitory activity on EGFR mutant containing both T790M and L858R, times stronger than neratinib” value in experiment [7] is given as 31 times.

The values are drawn from paper PMC6691816, “Discovery of aminopyridine-containing spiro derivatives as EGFR mutations inhibitors” (Journal of Enzyme Inhibition and Medicinal Chemistry, 2019).
